What all share (assay type): cell-based
Experiment [1] has as its system PLK-1. The experiment is described as follows: PLK-1 ELISA in HCT116 cells. The settings on record: HCT116, 48 h. For orientation: In an ELISA, binding on a coated surface is turned into a signal by an enzyme label.
The test system of experiment [2] is human colorectal cancer cells HCT116 [인간 대장암 세포, HCT116]. Nature of the experiment: alamarBlue cell proliferation assay, human colorectal cancer cells HCT116. The settings on record: 48 h, concentration dependence (Fig. 3: 100nM-1μM; Fig. 9). For orientation: Resazurin is reduced to fluorescent resorufin, in cell work by metabolically active cells.
The test system of experiment [3] is human colorectal cancer cells [인간 대장암 세포]. Nature of the experiment: Apoptosis induction in human colorectal cancer cells (Western blot). The settings on record: listed as 콜치신. (Immunoblotting shows a protein as a band on a membrane.)
The subject of experiment [4] is PLK-1. Nature of the experiment: Western blot of Plk-1 in HCT116 cells. The settings on record: HCT116, 48 h; listed as 콜치신.

Structures are written as SMILES. “Also recorded” adds a separate entry of the source.

Turning to `COc1cc2c(c(OC)c1OC)-c1ccc(OC)c(=O)cc1[C@@H](NC(C)=O)CC2` [H11-G04, Colchicine], the Plk-1 concentration result in experiment [1] is reported as “콜치신에 의해 Plk-1 농도가 감소함”. Moreover, the “inhibition of cell proliferation” value in experiment [2] is given as “세포증식이 농도에 따라 유의적으로 억제되는 효과가 나타났다”. The induction of apoptosis result in experiment [3] is given as “콜치신이 인간 대장암 세포의 사멸(apoptosis)를 유도함; also recorded: 세포사멸을 유도”. Moreover, the “inhibition of Plk-1 expression” value in experiment [4] is on record as “콜치신이 Plk-1의 발현을 억제함; also recorded: Plk-1의 발현도 역시 억제된다”.

These data come from patent publication KR20140086355A, “콜치신 유도체를 유효성분으로 포함하는 암의 예방 또는 치료용 조성물” (한국화학연구원, priority 2012, dated 2014).
